We go through one compound from patent US7629367B2, “N-(2-benzyl)-2-phenylbutanamides as androgen receptor modulators” (Merck & Co., Inc., priority 2004, dated 2009).

This assay concerns the target T1, androgen receptor (Homo sapiens, UniProt P10275).
T1 sequence (P10275 1-920): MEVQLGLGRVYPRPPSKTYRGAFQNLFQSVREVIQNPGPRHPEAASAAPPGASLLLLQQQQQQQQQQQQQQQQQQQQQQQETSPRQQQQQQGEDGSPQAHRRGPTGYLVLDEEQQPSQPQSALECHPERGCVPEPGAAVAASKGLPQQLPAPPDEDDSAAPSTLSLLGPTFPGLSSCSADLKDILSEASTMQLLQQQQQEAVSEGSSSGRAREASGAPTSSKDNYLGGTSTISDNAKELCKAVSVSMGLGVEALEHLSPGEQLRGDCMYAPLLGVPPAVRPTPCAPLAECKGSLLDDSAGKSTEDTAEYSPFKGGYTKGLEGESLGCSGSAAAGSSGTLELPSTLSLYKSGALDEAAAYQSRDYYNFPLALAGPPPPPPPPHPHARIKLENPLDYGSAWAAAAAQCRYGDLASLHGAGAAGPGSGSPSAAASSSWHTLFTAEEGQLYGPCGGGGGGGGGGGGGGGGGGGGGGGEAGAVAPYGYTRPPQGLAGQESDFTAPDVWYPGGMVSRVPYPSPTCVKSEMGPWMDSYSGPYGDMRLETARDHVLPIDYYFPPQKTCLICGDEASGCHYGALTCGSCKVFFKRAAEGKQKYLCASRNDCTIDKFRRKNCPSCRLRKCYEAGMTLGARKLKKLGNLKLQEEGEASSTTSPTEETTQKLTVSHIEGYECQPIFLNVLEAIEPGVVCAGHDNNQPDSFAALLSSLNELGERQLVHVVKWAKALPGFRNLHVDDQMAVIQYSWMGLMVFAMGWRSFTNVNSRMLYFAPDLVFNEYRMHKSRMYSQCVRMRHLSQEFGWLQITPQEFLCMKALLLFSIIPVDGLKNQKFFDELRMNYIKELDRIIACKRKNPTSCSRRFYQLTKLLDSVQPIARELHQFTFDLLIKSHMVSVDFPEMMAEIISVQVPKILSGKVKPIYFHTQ
Briefly: biochemical assays (not further specified). To be noted: compound coupled from the second-peak acid (RT=21 min).

As to `Cc1cnc(F)c(CNC(=O)C(O)(c2ccccc2)C(F)(F)C(F)(F)F)c1` (single isomer, unassigned) [Example 3-2, (2R or 2S)-3,3,4,4,4-pentafluoro-N-[(2-fluoro-5-methylpyridin-3-yl)methyl]-2-hydroxy-2-phenylbutanamide], the “activity in the biochemical assays” value was “active”.
